Measurements taken from the OligoGym collection.
Several values for one entry are separate records, joined by “and”; a condition that tells them apart may be missing. Identical values can stand only once. After the bases stand the sugars from the 5' end (letter, count) and the backbone: PS all phosphorothioate, else s phosphorothioate and o phosphodiester by linkage. Methylation of C is not given here. e = 2'-O-(2-methoxyethyl) (MOE); d = 2'-deoxy (DNA)

Target: DGAT2
Settings: ASO

Row | Sequence | target mRNA inhibition (HepG2, 0.12 µM) | target mRNA inhibition (HepG2, 2.5 µM) | target mRNA inhibition (HepG2, 10 µM) | target mRNA inhibition (HepG2, 20 µM)
1 | TCATTTCATAGATGAGGAGA (sugars e5 d10 e5, PS) | 34% |  |  | 
2 | ATGAGGGTCTTCATGGCTGA (sugars e5 d10 e5, PS) | 7% |  |  | 
3 | TGGATACTCAGAAGAGCAGT (sugars e5 d10 e5, PS) | 37% |  |  | 
4 | TGGGAACAGCAGCATCAGCA (sugars e5 d10 e5, PS) |  | 65% | 80% | 
5 | GACAAAGTCTATCAGGATGC (sugars e5 d10 e5, PS) |  | 88% and 67% | 92% and 91% | 
6 | GTCAAACCTAGGTTCAGACT (sugars e5 d10 e5, PS) |  | 68% | 87% | 
7 | GCTTCCTCCCACTTCAGTTT (sugars e5 d10 e5, PS) |  | 55% | 83% | 
8 | AGAGCCAGCACACAGCTATG (sugars e5 d10 e5, PS) | 20% |  |  | 
9 | TCCATGTCAGAGAGGCT (sugars e3 d10 e4, PS) |  | 78% and 76% | 65% and 89% | 
10 | AATGGGAATGGTATCGCACT (sugars e5 d10 e5, PS) |  | 58% | 89% | 
11 | GAATGGTGTGTTGGCTCCCT (sugars e5 d10 e5, PS) |  | 54% | 75% | 
12 | ACCCAGAGATGGTGATAAGG (sugars e5 d10 e5, PS) | 53% |  |  | 
13 | ACAATTCCTGGATAACAAGG (sugars e5 d10 e5, PS) | 41% |  |  | 
14 | GTAGCTGCTTTTCCACCTTG (sugars e5 d10 e5, PS) | 43% |  |  | 
15 | ACAGGGCAGATACCTCCAGA (sugars e5 d10 e5, PS) | 58% |  |  | 
16 | TGCCAATGCCTAGGTCA (sugars e3 d10 e4, PS) |  | 82% and 74% | 70% and 89% | 
17 | GTTTCGGACCCACTGTGACC (sugars e3 d14 e3, PS) | 71% |  |  | 
18 | ATAATTTCTTTTAAATAACC (sugars e5 d10 e5, PS) | 0% |  |  | 
19 | GACTTCCCTTCACAGAATCC (sugars e5 d10 e5, PS) | 5% |  |  | 
20 | ACAACTCTCTTGTTGGGAGG (sugars e5 d10 e5, PS) |  | 64% | 84% | 
21 | TTCCACTCTTCTGACAGGTC (sugars e5 d10 e5, PS) |  |  | 89% and 84% | 
22 | CCAACTCTCAGCTACTCCCC (sugars e5 d10 e5, PS) |  | 95% | 79% | 
23 | GCCCTCCTCGAAGATCACCT (sugars e5 d10 e5, PS) |  | 37% | 76% | 

Row | Sequence | target mRNA inhibition (HepG2, 0.12 µM) | target mRNA inhibition (HepG2, 2.5 µM) | target mRNA inhibition (HepG2, 10 µM) | target mRNA inhibition (HepG2, 20 µM)
24 | TTCCCCAGAGCAGCTCTGAG (sugars e5 d10 e5, PS) | 27% |  |  | 
25 | TGTGCTGCATCCATGTCATC (sugars e5 d10 e5, PS) | 36% |  |  | 
26 | TGGACAAGTCCTGCCCATCT (sugars e2 d13 e5, PS) | 51% |  |  | 
27 | GGAACTTCTTCTGGACCCAT (sugars e5 d10 e5, PS) | 36% |  |  | 
28 | ACCTGGGTTTTTGTGTATTC (sugars e5 d10 e5, PS) |  | 86% and 87% | 86% and 90% | 
29 | GCTAGGACACCTGGAGCTGC (sugars e5 d10 e5, PS) |  |  | 95% and 80% and 96% | 
30 | CCCAGTTTCGGACCCACTGT (sugars e5 d10 e5, PS) | 85% | 24% and 25% | 33% | 57%
31 | TGGTGATGGGCTTGGAGTAG (sugars e5 d10 e5, PS) | 28% |  |  | 
32 | TGCAGCCTGGACAAGTCCTG (sugars e5 d10 e5, PS) | 67% |  |  | 
33 | TGTACACTTCATTCTCTCCA (sugars e5 d10 e5, PS) |  | 41% | 87% | 
34 | ATTGCCACTCCCATTCTTTG (sugars e2 d13 e5, PS) | 53% |  |  | 
35 | ATTGCCACTCCCATTCTTTG (sugars e3 d14 e3, PS) | 40% |  |  | 
36 | CAGGACCCACTGGAGCACTG (sugars e5 d10 e5, PS) | 80% |  |  | 83%
37 | AGGACAGGGCAGACACACCT (sugars e5 d10 e5, PS) | 44% |  |  | 
38 | CTTGTGCTTGTCGAAGAGCT (sugars e5 d10 e5, PS) |  | 33% | 66% | 
39 | GTGCTCTGTGGGCTCCT (sugars e3 d10 e4, PS) |  | 55% and 70% | 85% and 89% | 
40 | AGCCAGGTAAGGCCGTATGC (sugars e2 d13 e5, PS) | 67% |  |  | 
41 | TCCGCAGGGTGACTGCATTC (sugars e5 d10 e5, PS) | 48% |  |  | 
42 | CAGATCTTCATTACATGATT (sugars e5 d10 e5, PS) |  | 71% | 89% | 
43 | TGTCTTCACCAGCTGGATGG (sugars e5 d10 e5, PS) | 55% |  |  | 
44 | CCCATCTCCCAGACCCCTCG (sugars e5 d10 e5, PS) | 12% |  |  | 
45 | CCTCTGCTTCTTGGGCATCT (sugars e5 d10 e5, PS) |  | 92% and 91% | 91% and 89% | 
46 | TGGACAAGTCCTGCCCATCT (sugars e3 d14 e3, PS) | 69% |  |  | 

Row | Sequence | target mRNA inhibition (HepG2, 0.12 µM) | target mRNA inhibition (HepG2, 2.5 µM) | target mRNA inhibition (HepG2, 10 µM) | target mRNA inhibition (HepG2, 20 µM)
47 | CAAAAACATGACAGCCAGGG (sugars e5 d10 e5, PS) |  | 85% and 75% | 96% and 90% | 
48 | AGCCTGGACAAGTCCTGCCC (sugars e2 d13 e5, PS) | 75% |  |  | 
49 | TCCGGTCAGCCTCGGCCTGA (sugars e5 d10 e5, PS) | 20% |  |  | 
50 | CCTCCTTAGCTTTAATCCAG (sugars e5 d10 e5, PS) |  | 43% | 82% | 
51 | CTGGATGGGAAAGTAGTCTC (sugars e5 d10 e5, PS) | 38% |  |  | 
52 | CCCAGTTTCGGACCCACTGT (sugars e2 d13 e5, PS) | 70% |  |  | 
53 | GCAGGACCCCGGAGTAGGCG (sugars e3 d14 e3, PS) | 70% |  |  | 
54 | CCAGTTTCGGACCCACTGTG (sugars e5 d10 e5, PS) | 83% | 28% | 31% | 65%
55 | CTTGGGTGTGTTCCAGTCAA (sugars e5 d10 e5, PS) | 5% |  |  | 
56 | CTTCTTCTGGACCCATCGGC (sugars e5 d10 e5, PS) | 27% |  |  | 
57 | GCAGGTTCATCTGCCTTGAC (sugars e5 d10 e5, PS) |  | 80% and 65% | 81% and 85% | 
58 | CTGCTTGTACACTTCATTCT (sugars e5 d10 e5, PS) | 58% |  |  | 
59 | CTTTGAAATCCAATGCACCT (sugars e5 d10 e5, PS) |  | 65% | 92% | 
60 | TTTCCACTCTTCTGACAGGT (sugars e5 d10 e5, PS) |  | 77% and 69% | 93% and 92% | 
61 | AAATAACCCACAGACACCCA (sugars e5 d10 e5, PS) | 10% | 52% and 50% and 46% | 96% and 85% | 97%
62 | GCCCAGTTTCGGACCCACTG (sugars e2 d13 e5, PS) | 82% |  |  | 
63 | CCAGGGCCTCCATGTACATG (sugars e2 d13 e5, PS) | 69% |  |  | 
64 | GCTTGTACACTTCATTCTCT (sugars e5 d10 e5, PS) |  | 42% | 85% | 
65 | GGAGTTTGTGTTTCCCATTT (sugars e5 d10 e5, PS) |  | 81% and 72% | 91% and 84% | 
66 | TCAGGACCTCAGGGCTGGCC (sugars e5 d10 e5, PS) |  | 64% | 82% | 
67 | TCACTGATGACATATCCCCA (sugars e5 d10 e5, PS) | 52% |  |  | 
68 | CCCTCTTAGAAGTAATGCTT (sugars e5 d10 e5, PS) |  |  | 85% and 89% | 
69 | GGCACCAGCCCCCAGGTGTC (sugars e5 d10 e5, PS) | 30% |  |  | 

Row | Sequence | target mRNA inhibition (HepG2, 0.12 µM) | target mRNA inhibition (HepG2, 2.5 µM) | target mRNA inhibition (HepG2, 10 µM) | target mRNA inhibition (HepG2, 20 µM)
70 | ATTAGCAGTAGCTCAGGAGA (sugars e5 d10 e5, PS) | 48% |  |  | 
71 | TCATTCTCTCCAAAGGAGTA (sugars e5 d10 e5, PS) | 18% |  |  | 
72 | GTGTACTTTGAGCATCCCCA (sugars e5 d10 e5, PS) |  | 63% and 62% | 88% and 87% | 
73 | AGAAGGCACCCAGGCCCATG (sugars e5 d10 e5, PS) | 38% |  |  | 
74 | AATCTGTGTGACCTTGGGCA (sugars e5 d10 e5, PS) |  | 87% and 82% | 84% and 93% | 
75 | TGCTGGATCCAGTGCCCCAT (sugars e5 d10 e5, PS) | 44% |  |  | 
76 | ACCCATCGGCCCCAGGAGCC (sugars e5 d10 e5, PS) | 59% |  |  | 
77 | ACCAGCCAGGCCCAGACCCA (sugars e5 d10 e5, PS) |  | 21% | 43% | 
78 | GCAAATAGTCTATGGTGTCC (sugars e5 d10 e5, PS) | 60% |  |  | 
79 | CTGGACAAGTCCTGCCCATC (sugars e5 d10 e5, PS) | 77% |  |  | 
80 | AGCAGGTTGTGTGTCTTCAC (sugars e5 d10 e5, PS) | 55% and 77% | 0% |  | 
81 | TTCTGGAACTTCTTCTGGAC (sugars e5 d10 e5, PS) | 37% |  |  | 
82 | TAGGGCACCAGCCCCCAGGT (sugars e5 d10 e5, PS) | 32% |  |  | 
83 | AGGTTGTGTGTCTTCACCAG (sugars e3 d14 e3, PS) | 61% |  |  | 
84 | GCCAATGCCTAGGTCACAGT (sugars e5 d10 e5, PS) |  | 87% and 93% | 84% and 90% | 
85 | TGGAGCTCAGAGACTCAGCC (sugars e5 d10 e5, PS) | 77% | 19% | 70% | 46%
86 | ACCACAGCGATAATCAC (sugars e3 d10 e4, PS) |  | 50% | 75% | 
87 | GCAGCCTGGACAAGTCCTGC (sugars e2 d13 e5, PS) | 77% |  |  | 
88 | TATTCTAAAACTCAAATCCA (sugars e5 d10 e5, PS) |  | 21% | 75% | 
89 | TGGACAAGTCATCTTCCAGC (sugars e5 d10 e5, PS) |  | 52% | 74% | 
90 | CCCAGTTTCGGACCCACTGT (sugars e3 d14 e3, PS) | 76% |  |  | 
91 | GATTTGTACTTGAATCCAGG (sugars e5 d10 e5, PS) | 34% |  |  | 
